Assay results: PubChem BioAssay (NCI)
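Protocol summary: plate cells (96-well), add compound at 5 concentrations, incubate 48 h, interpolate endpoints linearly. TGI denotes the concentration required for complete inhibition of growth.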

System: A498 renal
Assay: NCI tumour cell line growth inhibition, 48 h

Row | SMILES | TGI [µM]
1 | C[C@]12CC[C@@H]3c4ccc(O)cc4CC[C@H]3[C@@H]1C/C(=C\c1ccncc1)[C@@H]2O | 17.7
2 | COc1cc(-c2cc(=O)c3cc4c(=O)cc(-c5cc(OC)c(OC)c(OC)c5)oc4cc3o2)cc(OC)c1OC | 65.6
3 | O=c1ccn(C2OC(CO)C(P(=O)(O)O)C2O)c(=O)[nH]1 (centres undefined) | > 100
4 | NCCCN1CCN(CCCNc2ccc3nnn4c5ccccc5c(=O)c2c34)CC1 | 40.6
5 | O=C(Oc1cc(=O)c(OC(=O)c2ccccc2)co1)c1ccccc1 | > 100

System: MCF7 breast
Assay: NCI tumour cell line growth inhibition, 48 h

Row | SMILES | TGI [µM]
6 | CCc1c[n+]([O-])c(C)cc1[N+](=O)[O-] | > 100
7 | COc1ccc(-c2c3c([nH]c(=S)c2C#N)CC(C)(C)CC3=O)cc1 | > 100
8 | N#CC(N=Nc1ccc(Cl)cc1)c1nc2ccccc2o1 (centres undefined) | > 100
9 | COc1ccc(/C=C2\C[C@H]3[C@@H]4CCC5=C/C(=N/O)CC[C@]5(C)[C@H]4CC[C@]3(C)\C2=N\O)cc1OC | > 100
10 | Cc1ccc([N+](=O)[O-])cc1N=NC(=O)NNc1cc([N+](=O)[O-])ccc1C | 67.3
11 | COC(=O)CCc1cc(OC)c2c(c1)[C@H](C(=O)OC)[C@@H](c1ccc(O)c(OC)c1)O2 | > 100
12 | COC(=O)CN1c2nc(C#N)c(C#N)nc2N(CC(=O)OC)c2nc(C#N)c(C#N)nc21 | 18.4
13 | CC(C)=CCC/C(C)=C/COC(C)(C)C1=CCC(C)CC1 (centres undefined) (tested in a mixture with another compound) | > 100
14 | C/C1=C\CC[C@@]2(C)O[C@@H]2C[C@@H](C2(C)CO2)CC/C(C)=C/CC1 (some centres undefined) | 37.1
15 | Clc1ccc(CSCCc2ccncc2)cc1Cl | 35.7
16 | COc1ccc(S(=O)(=O)N2C(=O)CCC2C(=O)NN)cc1 (centres undefined) | > 100
17 | CCCCn1cnc2c(c(CC#N)nn2-c2ccccc2)c1=N | > 100
18 | O=C1CC(C(O)(C(F)(F)F)C(F)(F)Cl)CCC1C(O)(C(F)(F)F)C(F)(F)Cl (centres undefined) | > 10
19 | C=CCNC(=S)N=Nc1c(O)[nH]c2ccc([N+](=O)[O-])cc12 | > 100
20 | C[C@]12CC[C@@H]3c4ccc(O)cc4CC[C@H]3[C@@H]1C/C(=C\c1ccncc1)[C@@H]2O | 30.2
21 | COc1cc(-c2cc(=O)c3cc4c(=O)cc(-c5cc(OC)c(OC)c(OC)c5)oc4cc3o2)cc(OC)c1OC | > 100
22 | O=c1ccn(C2OC(CO)C(P(=O)(O)O)C2O)c(=O)[nH]1 (centres undefined) | > 100
23 | NCCCN1CCN(CCCNc2ccc3nnn4c5ccccc5c(=O)c2c34)CC1 | 74.7
24 | O=C(Oc1cc(=O)c(OC(=O)c2ccccc2)co1)c1ccccc1 | > 100

System: HCC-2998 colon
Assay: NCI tumour cell line growth inhibition, 48 h

Row | SMILES | TGI [µM]
25 | CCc1c[n+]([O-])c(C)cc1[N+](=O)[O-] | 40.5
26 | COc1ccc(-c2c3c([nH]c(=S)c2C#N)CC(C)(C)CC3=O)cc1 | > 100
27 | N#CC(N=Nc1ccc(Cl)cc1)c1nc2ccccc2o1 (centres undefined) | > 100
28 | COc1ccc(/C=C2\C[C@H]3[C@@H]4CCC5=C/C(=N/O)CC[C@]5(C)[C@H]4CC[C@]3(C)\C2=N\O)cc1OC | > 100
29 | Cc1ccc([N+](=O)[O-])cc1N=NC(=O)NNc1cc([N+](=O)[O-])ccc1C | 58
30 | COC(=O)CCc1cc(OC)c2c(c1)[C@H](C(=O)OC)[C@@H](c1ccc(O)c(OC)c1)O2 | 50.5
31 | COC(=O)CN1c2nc(C#N)c(C#N)nc2N(CC(=O)OC)c2nc(C#N)c(C#N)nc21 | > 49.7
32 | CC(C)=CCC/C(C)=C/COC(C)(C)C1=CCC(C)CC1 (centres undefined) (tested in a mixture with another compound) | > 100
33 | C/C1=C\CC[C@@]2(C)O[C@@H]2C[C@@H](C2(C)CO2)CC/C(C)=C/CC1 (some centres undefined) | 39.2
34 | Clc1ccc(CSCCc2ccncc2)cc1Cl | 34.2
35 | COc1ccc(S(=O)(=O)N2C(=O)CCC2C(=O)NN)cc1 (centres undefined) | > 100
36 | CCCCn1cnc2c(c(CC#N)nn2-c2ccccc2)c1=N | > 100
37 | O=C1CC(C(O)(C(F)(F)F)C(F)(F)Cl)CCC1C(O)(C(F)(F)F)C(F)(F)Cl (centres undefined) | > 10
38 | C=CCNC(=S)N=Nc1c(O)[nH]c2ccc([N+](=O)[O-])cc12 | > 100
39 | C[C@]12CC[C@@H]3c4ccc(O)cc4CC[C@H]3[C@@H]1C/C(=C\c1ccncc1)[C@@H]2O | 53
40 | COc1cc(-c2cc(=O)c3cc4c(=O)cc(-c5cc(OC)c(OC)c(OC)c5)oc4cc3o2)cc(OC)c1OC | > 100
41 | O=c1ccn(C2OC(CO)C(P(=O)(O)O)C2O)c(=O)[nH]1 (centres undefined) | > 100
42 | NCCCN1CCN(CCCNc2ccc3nnn4c5ccccc5c(=O)c2c34)CC1 | 29.4
43 | O=C(Oc1cc(=O)c(OC(=O)c2ccccc2)co1)c1ccccc1 | > 100

System: HOP-92 NSCLC
Assay: NCI tumour cell line growth inhibition, 48 h

Row | SMILES | TGI [µM]
44 | CCc1c[n+]([O-])c(C)cc1[N+](=O)[O-] | > 100
45 | COc1ccc(-c2c3c([nH]c(=S)c2C#N)CC(C)(C)CC3=O)cc1 | > 100
46 | N#CC(N=Nc1ccc(Cl)cc1)c1nc2ccccc2o1 (centres undefined) | 70.4
47 | COc1ccc(/C=C2\C[C@H]3[C@@H]4CCC5=C/C(=N/O)CC[C@]5(C)[C@H]4CC[C@]3(C)\C2=N\O)cc1OC | > 100
48 | Cc1ccc([N+](=O)[O-])cc1N=NC(=O)NNc1cc([N+](=O)[O-])ccc1C | > 100
49 | COC(=O)CCc1cc(OC)c2c(c1)[C@H](C(=O)OC)[C@@H](c1ccc(O)c(OC)c1)O2 | > 100
50 | COC(=O)CN1c2nc(C#N)c(C#N)nc2N(CC(=O)OC)c2nc(C#N)c(C#N)nc21 | 7.44
51 | CC(C)=CCC/C(C)=C/COC(C)(C)C1=CCC(C)CC1 (centres undefined) (tested in a mixture with another compound) | > 100
52 | C/C1=C\CC[C@@]2(C)O[C@@H]2C[C@@H](C2(C)CO2)CC/C(C)=C/CC1 (some centres undefined) | > 100
53 | Clc1ccc(CSCCc2ccncc2)cc1Cl | 30.4
54 | COc1ccc(S(=O)(=O)N2C(=O)CCC2C(=O)NN)cc1 (centres undefined) | > 100
55 | CCCCn1cnc2c(c(CC#N)nn2-c2ccccc2)c1=N | > 100
56 | O=C1CC(C(O)(C(F)(F)F)C(F)(F)Cl)CCC1C(O)(C(F)(F)F)C(F)(F)Cl (centres undefined) | 5.09
57 | C=CCNC(=S)N=Nc1c(O)[nH]c2ccc([N+](=O)[O-])cc12 | > 100
58 | C[C@]12CC[C@@H]3c4ccc(O)cc4CC[C@H]3[C@@H]1C/C(=C\c1ccncc1)[C@@H]2O | 32
59 | COc1cc(-c2cc(=O)c3cc4c(=O)cc(-c5cc(OC)c(OC)c(OC)c5)oc4cc3o2)cc(OC)c1OC | 43.3
60 | O=c1ccn(C2OC(CO)C(P(=O)(O)O)C2O)c(=O)[nH]1 (centres undefined) | > 100
61 | NCCCN1CCN(CCCNc2ccc3nnn4c5ccccc5c(=O)c2c34)CC1 | 96.6
62 | O=C(Oc1cc(=O)c(OC(=O)c2ccccc2)co1)c1ccccc1 | > 100

System: UACC-257 melanoma
Assay: NCI tumour cell line growth inhibition, 48 h

Row | SMILES | TGI [µM]
63 | CCc1c[n+]([O-])c(C)cc1[N+](=O)[O-] | > 100
64 | COc1ccc(-c2c3c([nH]c(=S)c2C#N)CC(C)(C)CC3=O)cc1 | > 100
65 | N#CC(N=Nc1ccc(Cl)cc1)c1nc2ccccc2o1 (centres undefined) | > 100
66 | COc1ccc(/C=C2\C[C@H]3[C@@H]4CCC5=C/C(=N/O)CC[C@]5(C)[C@H]4CC[C@]3(C)\C2=N\O)cc1OC | > 100
67 | COC(=O)CCc1cc(OC)c2c(c1)[C@H](C(=O)OC)[C@@H](c1ccc(O)c(OC)c1)O2 | > 100
68 | COC(=O)CN1c2nc(C#N)c(C#N)nc2N(CC(=O)OC)c2nc(C#N)c(C#N)nc21 | > 100
69 | CC(C)=CCC/C(C)=C/COC(C)(C)C1=CCC(C)CC1 (centres undefined) (tested in a mixture with another compound) | > 100
70 | C/C1=C\CC[C@@]2(C)O[C@@H]2C[C@@H](C2(C)CO2)CC/C(C)=C/CC1 (some centres undefined) | > 100
71 | Clc1ccc(CSCCc2ccncc2)cc1Cl | > 100
72 | COc1ccc(S(=O)(=O)N2C(=O)CCC2C(=O)NN)cc1 (centres undefined) | > 100
73 | CCCCn1cnc2c(c(CC#N)nn2-c2ccccc2)c1=N | > 100
74 | O=C1CC(C(O)(C(F)(F)F)C(F)(F)Cl)CCC1C(O)(C(F)(F)F)C(F)(F)Cl (centres undefined) | > 10
75 | C=CCNC(=S)N=Nc1c(O)[nH]c2ccc([N+](=O)[O-])cc12 | > 100
76 | C[C@]12CC[C@@H]3c4ccc(O)cc4CC[C@H]3[C@@H]1C/C(=C\c1ccncc1)[C@@H]2O | > 100
77 | COc1cc(-c2cc(=O)c3cc4c(=O)cc(-c5cc(OC)c(OC)c(OC)c5)oc4cc3o2)cc(OC)c1OC | > 100
78 | O=c1ccn(C2OC(CO)C(P(=O)(O)O)C2O)c(=O)[nH]1 (centres undefined) | > 100
79 | NCCCN1CCN(CCCNc2ccc3nnn4c5ccccc5c(=O)c2c34)CC1 | > 100
80 | O=C(Oc1cc(=O)c(OC(=O)c2ccccc2)co1)c1ccccc1 | > 100

System: NCI-H23 lung
Assay: NCI tumour cell line growth inhibition, 48 h

Row | SMILES | TGI [µM]
81 | CCc1c[n+]([O-])c(C)cc1[N+](=O)[O-] | > 100
82 | COc1ccc(-c2c3c([nH]c(=S)c2C#N)CC(C)(C)CC3=O)cc1 | > 100
83 | N#CC(N=Nc1ccc(Cl)cc1)c1nc2ccccc2o1 (centres undefined) | 98.2
84 | COc1ccc(/C=C2\C[C@H]3[C@@H]4CCC5=C/C(=N/O)CC[C@]5(C)[C@H]4CC[C@]3(C)\C2=N\O)cc1OC | > 100
85 | Cc1ccc([N+](=O)[O-])cc1N=NC(=O)NNc1cc([N+](=O)[O-])ccc1C | > 100
86 | COC(=O)CCc1cc(OC)c2c(c1)[C@H](C(=O)OC)[C@@H](c1ccc(O)c(OC)c1)O2 | > 100
87 | COC(=O)CN1c2nc(C#N)c(C#N)nc2N(CC(=O)OC)c2nc(C#N)c(C#N)nc21 | > 29.8
88 | CC(C)=CCC/C(C)=C/COC(C)(C)C1=CCC(C)CC1 (centres undefined) (tested in a mixture with another compound) | > 100
89 | C/C1=C\CC[C@@]2(C)O[C@@H]2C[C@@H](C2(C)CO2)CC/C(C)=C/CC1 (some centres undefined) | 48.8
